Results: patent US20200129523A1, “SHIP INHIBITION TO INDUCE EXPRESSION OF GRANULOCYTE COLONY STIMULATING FACTOR IN A SUBJECT” (THE RESEARCH FOUNDATION FOR THE STATE UNIVERSITY OF NEW YORK, priority 2014, published 2020)
Entries after “also recorded” stand apart in the source; their conditions may differ.

How the values were obtained:
SHIP1 = target: T1, SHIP1 (Homo sapiens, UniProt Q92835); assay: Fluorescence Polarization (FP) assay for SHIP1 enzymatic activity; format: biochemical; conditions: in vitro, hydrochloride
T1 sequence (Q92835 1-1189): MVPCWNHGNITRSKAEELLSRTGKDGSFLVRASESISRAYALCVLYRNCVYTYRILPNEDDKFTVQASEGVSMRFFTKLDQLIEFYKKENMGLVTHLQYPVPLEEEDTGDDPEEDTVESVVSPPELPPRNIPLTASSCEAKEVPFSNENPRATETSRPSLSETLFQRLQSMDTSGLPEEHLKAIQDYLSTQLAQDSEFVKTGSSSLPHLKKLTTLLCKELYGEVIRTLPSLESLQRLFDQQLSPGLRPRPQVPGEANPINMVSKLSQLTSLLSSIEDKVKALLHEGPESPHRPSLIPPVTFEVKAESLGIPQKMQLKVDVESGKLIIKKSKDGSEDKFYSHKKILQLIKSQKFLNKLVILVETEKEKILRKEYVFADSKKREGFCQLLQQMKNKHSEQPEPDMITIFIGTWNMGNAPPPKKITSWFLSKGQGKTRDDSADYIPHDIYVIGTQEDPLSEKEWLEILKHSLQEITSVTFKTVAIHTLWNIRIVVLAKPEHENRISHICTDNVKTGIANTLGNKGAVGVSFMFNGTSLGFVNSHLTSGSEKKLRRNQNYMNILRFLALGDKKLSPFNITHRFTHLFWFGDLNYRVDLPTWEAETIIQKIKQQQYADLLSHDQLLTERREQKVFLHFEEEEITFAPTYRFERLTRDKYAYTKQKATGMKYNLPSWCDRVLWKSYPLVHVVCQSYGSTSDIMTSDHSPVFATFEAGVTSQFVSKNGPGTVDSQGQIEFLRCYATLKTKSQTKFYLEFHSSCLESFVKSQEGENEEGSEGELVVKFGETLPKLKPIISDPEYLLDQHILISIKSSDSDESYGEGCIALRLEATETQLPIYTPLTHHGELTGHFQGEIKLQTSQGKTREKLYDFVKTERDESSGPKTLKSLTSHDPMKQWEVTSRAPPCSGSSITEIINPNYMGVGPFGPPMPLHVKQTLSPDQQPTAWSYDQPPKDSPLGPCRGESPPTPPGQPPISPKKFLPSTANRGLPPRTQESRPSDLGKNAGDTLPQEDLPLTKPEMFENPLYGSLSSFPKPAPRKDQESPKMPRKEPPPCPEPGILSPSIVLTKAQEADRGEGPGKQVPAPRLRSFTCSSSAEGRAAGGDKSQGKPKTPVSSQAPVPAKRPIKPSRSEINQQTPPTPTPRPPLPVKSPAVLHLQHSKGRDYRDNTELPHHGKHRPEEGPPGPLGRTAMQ
Source text: FIGS. 6A-6F: Characterizations of the soluble SHIPi compound K118. FIG. 6A: Fluorescence Polarization (FP) assay comparing SHIPi enzymatic inhibitory activity between 3AC and K118 (IC50˜13.87). In the remaining panels we show for K118 and H2O treated mice (as indicated). FIG. 6B: Representative box and whisker graph depicting serum levels of G-CSF (n=4/group); FIG. 6C: Flow cytometric analysis comparing LT-HSC (LSKFlk2−CD34−), ST-HSC (LSKFlk2−CD34+), and MPP (LSKFlk2^+CD34^+); FIG. 6D: Absolute increase in BM LT-HSC, ST-HSC, and MPP (n=5/group). Primary CRU assay illustrating global and lineage reconstitution one month post transplant; Absolute increase in repopulating units (RU). FIG. 6E: Representative contour plots for PDGFRα^+CD51^+ MSC (after excluding CD45^+, CD31^+, Lin^+ cells); FIG. 6F: Box and whiskers graph illustrating the percentage of PDGFRa^+CD51^+ MSC (n=5/group); Representative images of CFU-F assays used to measure CFU-F frequencies in BM cells of treated mice and Box and whiskers graphs indicating CFU-F frequency in treated mice. All of the above comparisons are representative of two independent experiments.
(FIG. 6A) We sought to determine if this water-soluble K118 SHIPi compound has the capacity to increase G-CSF production within the same five-day injection period as 3AC. […]

G-CSF = G-CSF ELISA of serum of treated mice; format: in vivo; conditions: K118 10 mg/kg i.p. 5 days, vs H2O; hydrochloride, 10 mg/kg
Method: Peripheral blood was collected in serum separation microvette tubes (SARSTEDT). Tubes were kept at room temperature for 2 hrs. and then spun at 2000×g for 20 min as per manufacturers recommendation. Serum levels of G-CSF in treated mice were determined using a Mouse G-CSF Quantikine Elisa kit (R&D systems).

C[C@@]12CCC[C@H]1[C@@H]1CC[C@H]3C[C@@H](N)CC[C@]3(C)[C@H]1CC2.Cl [K118, 3β-amino-5α-androstane hydrochloride]
SHIP1 inhibitory activity compared with 3AC (SHIP1): comparable SHIP1 inhibitory activity; also recorded: equal potency
G-CSF production (serum) (G-CSF): significant increase; also recorded: super-induces
